Reference: US8691851B2, “Lanthanide metal complexes useful in treating cancer” (National University of Singapore, priority 2009, dated 2014)
Like-named read-outs stand apart in the source and are kept apart here.

Columns and labels:
[1] = target: T1, PPARγ (Homo sapiens, UniProt P37231); assay: 3×PPRE luciferase reporter, PPARγ activation in breast cancer cells; type: cell-based; design: endogenous in cells; host or cells: MDA-MB-231, T47D (breast cancer); details: 0 to 20 μM, 18 hours
T1 sequence (P37231 1-505): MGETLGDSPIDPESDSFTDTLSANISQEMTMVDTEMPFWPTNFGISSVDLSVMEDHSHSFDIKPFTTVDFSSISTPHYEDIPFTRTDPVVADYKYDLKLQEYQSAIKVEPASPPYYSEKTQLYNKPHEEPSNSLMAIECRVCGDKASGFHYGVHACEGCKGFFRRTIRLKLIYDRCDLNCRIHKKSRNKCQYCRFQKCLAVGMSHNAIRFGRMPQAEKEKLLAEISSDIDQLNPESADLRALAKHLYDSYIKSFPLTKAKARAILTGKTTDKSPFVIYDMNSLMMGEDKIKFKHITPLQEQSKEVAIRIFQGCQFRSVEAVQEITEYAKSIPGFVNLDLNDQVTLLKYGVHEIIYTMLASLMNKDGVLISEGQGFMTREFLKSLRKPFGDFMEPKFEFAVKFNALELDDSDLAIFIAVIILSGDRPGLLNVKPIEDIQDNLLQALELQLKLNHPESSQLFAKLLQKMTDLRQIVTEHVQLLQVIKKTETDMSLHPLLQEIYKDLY
From the text: To determine if C19H24N3O5S5Pr activation of PPARγ is dependent on expression of PPARγ in breast cancer cells, breast cancer cells MDA-MB-231 and T47D were transiently co-transfected with a 3×PPRE luciferase plasmid and renilla plasmid for transfection efficiency.

[2] = tested on: PARP; details: SHEP-1 cells, 5 μM and 10 μM, 24 hrs
[3] = tested on: PTEN, RhoB, MnSOD; details: SHEP-1 and MDA-MB-231 cells, 5 μM and 10 μM, dose-dependent
Method: Whole cell lysates were prepared with RIPA lysis buffer containing 10 mM Tris-HCL pH7.4, 30 mM NaCl, 1 mM EDTA, 1% Nonidet P-40, supplemented with 1 mM Na3VO4, 1 μg/ml leupeptin, 1 μg/ml pepstatin A, 1 μg/ml aprotinin and 1 mM PMSF before use. Protein concentration was determined for each sample and equal amounts of protein were boiled for 5 min for other proteins, with 1×SDS sample buffer and resolved by 8% SDS-PAGE. Thereafter, proteins were transferred onto nitrocellulose membrane, blocked for 1 h at room temperature with 5% non-fat milk, and incubated overnight at 4° C. with the primary antibody. After probing with secondary antibody for 1 hr at 25° C., protein bands were detected by using the Supersignal West Pico Chemiluminescence (Pierce). β-actin antibody was used as a loading control.
Referring to FIGS. 14 and 15, SHEP-1 neuroblastoma cells and MDA-MB-231 breast cancer cells were treated with different concentrations of C19H24N3O5S5Pr at 5 μM and 10 μM for 4 hr, 8 hr, 18 hr, 241r, 48 hr and 72 hr. Whole cell extracts were prepared and protein expression was examined by Western Blot analysis. 70 μg of total protein was loaded per lane for each experiment. The levels of protein were determined by using specific primary antibody followed by peroxidise-conjugated secondary antibody and visualization by enhanced chemiluminescence.

[4] = tested on: Bax, cytochrome C; details: 5 μM and 10 μM
[5] = target: T1, PPARγ; type: cell-based; design: endogenous in cells; host or cells: SHSY5Y, SHEP1 / SHEP-1 (neuroblastoma); details: 18 hours
Method: To determine if C19H24N3O5S5Pr activates PPARγ, SHSY5Y and SHEP1 neuroblastoma cells were transiently co-transfected with a 3×PPRE luciferase plasmid and renilla plasmid for transfection efficiency. Forty eight hours following transfection, the cells were exposed to increased concentrations (0 to 10 μM) of 15d-PGJ2 and C19H24N3O5S5Pr for 18 hours. The fold increase in luciferase activity correlates with the PPARγ activity of the cell. PPARγ activity is determined by calculating the RLU/renilla/μg total protein.
To assess if C19H24N3O5S5Pr activation of PPARγ is dependent on expression of PPARγ neuroblastoma cells, neuroblastoma cells SHEP1 and SHSY5Y were transiently co-transfected with a 3×PPRE luciferase plasmid and renilla plasmid for transfection efficiency. Forty eight hours following transfection, cells were exposed to increased concentrations (0 to 20 μM) of C19H24N3O5S5Pr for 18 hours. PPARγ activity was calculated as luciferase RLU/renilla/μg total protein.

[6] = target: T1, PPARγ; assay: pPPREx3-TKLuc reporter with PPAR-γ short-hairpin RNA silencing (Method 1); type: cell-based; design: endogenous in cells; host or cells: SHSY5Y, SHEP1 / SHEP-1 (neuroblastoma); MDA-MB-231, T47D (breast cancer); details: SHEP-1 cells, 5 uM and 10 uM, 18 hr
From the text: In Method 1, a reporter plasmid containing three copies of the PPAR response element (pPPREx3-TKLuc) as illustrated in FIG. 19A and as previously described in Kim et al, Toxicological Sciences, 85, (2005), pp. 585-593, was transfected into SHEP-1 cancer cells. This system directly measures activation of endogenous PPAR via transcriptional activation of the luciferase reporter gene as a result of PPARγ binding to the PPAR response element (PPRE). To determine whether PPARγ receptor is activated by C19H24N3O5S5Pr, the SHEP-1 cancer cells was transiently transfected with either short-hairpin RNA plasmid targeting PPAR-γ protein or short hairpin RNA negative control. The cells were exposed to varying doses (5 uM, 10 uM) of C19H24N3O5S5Pr for 18 hr.

CS(C)=O.CS(C)=O.[O-][n+]1ccccc1[S-].[O-][n+]1ccccc1[S-].[O-][n+]1ccccc1[S-].[Pr+3] [C19H24N3O5S5Pr, praseodymium (2-mercaptopyridine N-oxide)(dimethylsulfoxide)]
PPARγ activation, MDA-MB-231 versus T47D cells [1]: activates PPARγ better in MDA-MB-231 cells, than in T47D cells
PARP cleavage (80 kDa fragment) [2]: PARP cleavage
MnSOD protein expression [3]: downregulated
PTEN protein expression [3]: upregulated
RhoB protein expression [3]: upregulated
Bax translocation ([4]; SHEP-1 cells, 18 hr and 24 hr): causes Bax translocation to the mitochondrial fraction
cytochrome C release ([4]; SHEP-1 cells, 18 hr and 24 hr): cytochrome C release into the cytosol
Bax translocation ([4]; SHSY5Y cells, 24 hr): causes Bax translocation to the mitochondrial fraction
cytochrome C release ([4]; SHSY5Y cells, 24 hr): cytochrome C release into the cytosol
PPARγ activation, SHEP1 versus SHSY5Y cells ([5]; 0 to 20 μM): activates PPARγ better in SHEP1 cells, than in SHSY5Y cells
PPARγ activation (luciferase RLU/renilla/μg total protein) ([5]; SHSY5Y and SHEP1 cells in 10% serum, 0 to 10 μM): significant activation of PPARγ
luciferase activity upon silencing of PPARγ protein [6]: luciferase activity was abrogated
